Earlier results on one compound are cited in patent US20040037880A1, “Extended release formulation of divalproex sodium” (priority 2002, published 2004).

Read-outs that look alike come from different tables or passages of the source.

For the compound `CCCC(CCC)C(=O)O` [valproic acid], the elimination half-life reads like this: (adults) 6 to 17 h; (children) 4 to 14 h.
